From patent US7388006B2, “Non-steroidal progesting” (Bayer Schering Pharma AG, priority 2002, dated 2008) come the findings set out here.

The test system of one test is PR-A. Type of test: cell-based. As for the experimental part:
The method for screening for PR isoform-specific progestins according to the present invention is carried out with first and second SK-N-MC cells stably transfected with a plasmid expressing the HPR-A (first cells) or the hPR-B (second cells) and the LUC reporter gene linked to the hormonally responsive MTV promoter.
The cells are cultured in Minimum Essential Medium with Earl's Salts (S-MEM, without L-glutamine; Gibco BRL, no. 21090-022), supplemented with 10% fetal calf serum (FCS), penicillin 100U/streptomycin 100 μg/ml (Biochrom, no. A2213), L-glutamine 4 mmol/l (Gibco BRL, no. 25030-024), sodium pyruvate 1 mmol/l (Biochrom, no. L0473) and 1×non-essential amino acids (Biochrom, no. K0293) at a temperature of 37° C. and in an atmosphere of 5% carbon dioxide.
For the transcription assay, the cells are seeded onto 96-well dishes (2×10^4 cells/dish) and cultured in a medium as described above, with the exception that the FCS is replaced by a 3% charcoal stripped FCS. 48 hours later, cells are contacted with prediluted test compounds. For determination of agonistic activity, cells are cultured in the presence of 6 increasing concentrations (10^−6 to 10^−11 mol/l) of test progestins. As a positive control for reporter gene induction cells are treated with 10^−6 to 10^−11 mol/l R5020 (promegestone). As a negative control for reporter gene induction, cells are cultured in 1% ethanol.
After incubation with test progestins for 24 hours, the medium is removed and cells are lysed with 20 μl of lysis buffer (Luciferase Assay System E 153A; Promega) and under agitation of the plate for 101 min. After addition of 30 μl of luciferase reagent (Luciferase Assay System E 151A+152A; Promega) within 30 seconds per plate, the activity of the luciferase reporter gene product is determined in the cell lysates by means of a Microlite ML 3000 microtiter plate luminometer (Dynatech) in cycle mode.
Evaluation of the response gives the efficacy [%], and evaluation of the EC50s values gives the potency [nM]. Calculation of the agonistic activity is conducted as follows:
The LUC activity [%] for the measured data points is calculated as follows:
[formula] wherein CI=100% stimulation (R5020, 10^−7 mol/l) and CO=0% stimulation (ethanol, 1%).
Thus, the efficacy [%] is calculated according to: […]
The potency [nM], i.e. the EC50, is determined graphically.

Another test addresses T1, androgen receptor (AR) (Homo sapiens, UniProt P10275).
T1 sequence (P10275 1-920): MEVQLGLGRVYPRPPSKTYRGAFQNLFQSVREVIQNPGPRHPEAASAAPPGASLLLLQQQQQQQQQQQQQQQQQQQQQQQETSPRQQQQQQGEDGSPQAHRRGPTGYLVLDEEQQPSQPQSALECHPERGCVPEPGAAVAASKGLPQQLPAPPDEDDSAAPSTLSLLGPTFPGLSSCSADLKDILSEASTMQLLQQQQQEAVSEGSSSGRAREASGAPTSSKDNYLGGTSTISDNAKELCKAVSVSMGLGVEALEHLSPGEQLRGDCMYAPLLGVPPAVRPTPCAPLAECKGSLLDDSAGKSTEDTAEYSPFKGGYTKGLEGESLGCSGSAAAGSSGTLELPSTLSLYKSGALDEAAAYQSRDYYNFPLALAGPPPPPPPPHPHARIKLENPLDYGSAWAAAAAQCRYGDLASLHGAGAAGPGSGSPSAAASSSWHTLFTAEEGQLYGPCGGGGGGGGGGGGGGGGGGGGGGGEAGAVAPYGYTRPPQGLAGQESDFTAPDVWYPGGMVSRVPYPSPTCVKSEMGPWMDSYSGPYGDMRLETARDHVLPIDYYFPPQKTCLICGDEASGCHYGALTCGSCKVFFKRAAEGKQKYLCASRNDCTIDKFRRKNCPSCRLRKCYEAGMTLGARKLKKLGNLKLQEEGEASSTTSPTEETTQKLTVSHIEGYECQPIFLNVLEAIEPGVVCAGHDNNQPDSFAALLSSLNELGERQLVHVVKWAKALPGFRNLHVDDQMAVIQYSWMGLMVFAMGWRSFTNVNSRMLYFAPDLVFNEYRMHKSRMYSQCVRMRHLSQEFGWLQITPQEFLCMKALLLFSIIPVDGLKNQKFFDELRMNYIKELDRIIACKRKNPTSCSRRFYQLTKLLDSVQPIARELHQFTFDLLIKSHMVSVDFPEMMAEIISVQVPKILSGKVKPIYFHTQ
The experiment in a line: Binding affinity for the androgen receptor.

The structures appear in SMILES notation.

On to `O=C1OCc2cc(NC(=O)C(O)(CC3(c4cc(C(F)(F)F)ccc4F)CC3)C(F)(F)F)ccc21` (single isomer, unassigned; (+)) [((+)-1), (+)-5-{2-hydroxy-3-[1-(2-fluoro-5-trifluoromethylphenyl)-cyclopropyl]-2-trifluoromethyl-propionylamino}-phthalide], for which, in the test with PR-A (PR-A efficacy minus PR-B efficacy), the “Δ agonism efficacies (A-B)” value is reported as 64. The “PR isoform selectivity in words” value with PR-A (PR-A versus PR-B) is on record as “selective PR-A agonist”. In addition, the “Binding affinity for the androgen receptor (AR)” value at androgen receptor (AR) is listed as “moderate binding affinity”.
